Some results are limits rather than exact numbers.

The target in the assay is T1, human GLP-1R receptor (Homo sapiens, UniProt P43220).
T1 construct: expressed in transfected cells
As to the kind of experiment: GLP-1R low expression cell assay (cAMP TR-FRET, CHO-K1_hGLP-1Rlow_clone10 cells). Format: cell-based. The settings on record: for EC50: cAMP TR-FRET, 30 min at 25° C.; for Emax: maximum activation relative to control GLP-1 peptide agonist. As for the experimental part:
Stable cell lines expressing high and low GLP-1R surface expression were generated in CHO-K1 cells transfected (Fugene 6) with a puromycin selectable DNA plasmid encoding human GLP-1R receptor (accession number: NM_002062.5) under control of an EF1A promoter. Transfected cells were seeded into 24-well plates (9,000 cells/well) containing complete medium and incubated in a humidified incubator at 37° C. with 5% carbon dioxide. After overnight incubation, medium was replaced with complete medium supplemented with puromycin (6 μg/mL) and refreshed every 2-3 days to select for stably transfected cells. Individual pools of selected cells were expanded prior to analysis for responsiveness to GLP-1 control peptide using a TR-FRET assay to detect cAMP (LANCE Ultra CAMP Assay, Perkin Elmer). Briefly, cells were collected in Versene solution, plated in 384-well plates (1,000 cells/well) and combined with serially diluted GLP-IR control peptide (10 nL) using an acoustic dispenser (ECHO). Plates were incubated for 30 minutes at 25° C. prior to the addition of EU-CAMP tracer (5 μL) and Ulight-anti-CAMP (5 μL) reagents to each well, followed by 15 minutes incubation at 25° C. TR-FRET signal was detected using an En Vision Multimode Plate Reader (excitation=320 nm; emission=615 and 655 nm). Dose-response curves were used to generate EC50 values as a measure of responsiveness to the GLP-IR control peptide. Selected cell lines were monitored for responsiveness over multiple passages to ensure stability. […] Briefly, GLP-IR expression was analyzed by flow cytometry using a fluorescein-labeled Exendin-4 peptide fluorescent probe (FLEX). Cells were harvested in Versene solution and washed 3-times with PBS+0.5% BSA before incubation with FLEX reagent (10 μM) for 2 hours at room temperature. After incubation, cells were washed 3-times in PBS+0.5% BSA before final resuspension in PBS prior to analysis by flow cytometry to measure FLEX mean fluorescence intensity (MFI) as a measure of GLP-IR expression on the cell surface.
For compound testing in the CHO-K1_hGLP-IRlow_clone10 cell line, cells were seeded in 384-well plates (1,000 cells/well). Test compounds were serially diluted in DMSO (10-point, 3-fold dilution), added to wells using an ECHO dispenser (10 nL/well) and plates were centrifuged for 1 min and agitated for 2 min at room temperature prior to 30-minute incubation at 25° C. After incubation, Eu-CAMP (5 μL) and Ulight-anti-cAMP (5 μL) reagents were added to each well, followed by centrifugation for 1 minute, agitation for 2 minutes at room temperature, and final incubation of the plates at 25° C. for 15 minutes. Plates were read using an EnVision microplate reader (excitation=320 nm; emission=615 and 655 nm). Dose-response curves were generated from duplicate wells based on percent activation calculated relative to a control GLP-1 peptide agonist that was run in parallel. EC50 values were determined by fitting percent activation as a function of compound concentration using the Hill equation (XLfit).
The compounds tested were compound samples prepared according to the General Procedures described in the Examples section.

T1 sequence (P43220 24-463): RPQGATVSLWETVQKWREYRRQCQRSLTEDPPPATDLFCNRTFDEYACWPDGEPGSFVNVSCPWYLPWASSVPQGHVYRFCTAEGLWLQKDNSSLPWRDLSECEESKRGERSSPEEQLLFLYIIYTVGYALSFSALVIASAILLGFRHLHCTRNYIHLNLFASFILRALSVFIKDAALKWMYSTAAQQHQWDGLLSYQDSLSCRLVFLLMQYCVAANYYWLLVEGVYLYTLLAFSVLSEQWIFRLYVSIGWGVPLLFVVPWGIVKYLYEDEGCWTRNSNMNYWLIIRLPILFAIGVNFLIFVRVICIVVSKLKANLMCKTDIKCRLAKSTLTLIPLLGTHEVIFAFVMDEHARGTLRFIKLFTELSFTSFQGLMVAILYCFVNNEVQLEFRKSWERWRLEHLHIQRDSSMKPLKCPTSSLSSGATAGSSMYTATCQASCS

Consider `COc1ccc(COc2cccc(C3CCN(Cc4nc5c(OC(F)F)cc(C(=O)O)cc5n4C)CC3)n2)c(F)c1` [Compound 228, 4-(Difluoromethoxy)-2-((4-(6-((2-fluoro-4-methoxybenzyl)oxy)pyridin-2-yl)piperidin-1-yl)methyl)-1-methyl-1H-benzo[d]imidazole-6-carboxylic acid], for which the EC50 fell in the range of 10 to 100 nM and the Emax is over 85%.

With `Cn1c(CN2CCC(c3cccc(OCc4ccc(C#N)cc4F)n3)CC2)nc2c(OC(C)(C)CF)cc(C(=O)O)cc21` [Compound 160, 2-((4-(6-((4-Cyano-2-fluorobenzyl)oxy)pyridin-2-yl)piperidin-1-yl)methyl)-4-((1-fluoro-2-methylpropan-2-yl)oxy)-1-methyl-1H-benzo[d]imidazole-6-carboxylic acid], the EC50 was 100 to 1000 nM and the Emax was over 85%.

For the molecule `Cn1c(CN2CCC(c3ccc4c(c3)N(Cc3ccc(Cl)cc3F)C(=O)CO4)CC2)nc2c(OC(F)F)cc(C(=O)O)cc21` [Compound 193, 2-((4-(4-(4-chloro-2-fluorobenzyl)-3-oxo-3,4-dihydro-2H-benzo[b][1,4]oxazin-6-yl)piperidin-1-yl)methyl)-4-(difluoromethoxy)-1-methyl-1H-benzo[d]imidazole-6-carboxylic acid], the EC50 was over 1000 nM and the Emax was under 25%.

`COc1cc(C(=O)O)cc2c1nc(CN1CCC(c3cccc4c3OC[C@H](c3ccc(Cl)cc3F)O4)CC1)n2C` [Compound 258, (S)-2-((4-(2-(4-Chloro-2-fluorophenyl)-2,3-dihydrobenzo[b][1,4]dioxin-5-yl)piperidin-1-yl)methyl)-4-methoxy-1-methyl-1H-benzo[d]imidazole-6-carboxylic acid] had an EC50 of 100 to 1000 nM and an Emax of over 85%.

The molecule `COc1cc(C(=O)O)cc2c1nc(CN1CCC(c3cccc(OCc4ccc(C#N)c5c4OCC5)n3)CC1)n2C` [Compound 283, 2-((4-(6-((4-Cyano-2,3-dihydrobenzofuran-7-yl)methoxy)pyridin-2-yl)piperidin-1-yl)methyl)-4-methoxy-1-methyl-1H-benzo[d]imidazole-6-carboxylic acid] showed an EC50 of under 10 nM and an Emax of over 85%.

`CCOc1cc(C(=O)O)cc2c1nc(CN1CCC(c3cccc4c3OC[C@H](c3ccc(Cl)cc3F)O4)CC1)n2C` [Compound 270, (S)-2-((4-(2-(4-Chloro-2-fluorophenyl)-2,3-dihydrobenzo[b][1,4]dioxin-5-yl)piperidin-1-yl)methyl)-4-ethoxy-1-methyl-1H-benzo[d]imidazole-6-carboxylic acid] had an EC50 of 10 to 100 nM and an Emax of over 85%.

`CN1C(=O)[C@@H](c2ccc(Cl)cc2F)Oc2c(C3CCN(Cc4nc5c(OC(F)F)cc(C(=O)O)cc5n4C)CC3)cccc21` [Compound 240, (R)-2-((4-(2-(4-chloro-2-fluorophenyl)-4-methyl-3-oxo-3,4-dihydro-2H-benzo[b][1,4]oxazin-8-yl)piperidin-1-yl)methyl)-4-(difluoromethoxy)-1-methyl-1H-benzo[d]imidazole-6-carboxylic acid] registered an EC50 of over 1000 nM and an Emax of under 25%.

`Cn1c(CN2CCC(c3cccc(OCc4ccc(Cl)cc4F)n3)CC2)nc2c(OCC#N)cc(C(=O)O)cc21` [Compound 202] yielded an EC50 of 10 to 100 nM and an Emax of over 85%.

In turn, `Cn1c(CN2CCC(c3cccc(OCc4c(F)cc(Cl)cc4F)n3)CC2)nc2c(OC(F)F)cc(C(=O)O)cc21` [Compound 153, 2-((4-(6-((4-Chloro-2,6-difluorobenzyl)oxy)pyridin-2-yl)piperidin-1-yl)methyl)-4-(difluoromethoxy)-1-methyl-1H-benzo[d]imidazole-6-carboxylic acid] displayed an EC50 of 10 to 100 nM and an Emax of over 85%.

For the origin of these results see patent publication US20240368120A1 (Terns Pharmaceuticals, Inc., priority 2023, published 2024).
